# From patent US20050265954A1, “Novel association, a method of its preparation and its uses” (ADAMED, Sp. z.o.o., priority 2004, published 2005)
# Key:
# Pliss' lymphosarcoma = assay: Tumor necrosis after photodynamic therapy, Pliss' lymphosarcoma; type: in vivo; settings: rats, photosensitizer 2.5 mg/kg, laser 660 nm, 50 J/cm^2
# Description: The studies were performed on white not-inbred laboratory rats having subcutaneously implanted tumors (Pliss' lymphosarcoma). The dose of the administered photosensitizer was 2.5 mg/kg. The necrosis area was estimated based on the functional condition of the tumor's vascular system following laser irradiation (660 nm) at the radiation dose of 50 J/cm^2, when accumulation of the photosensitizer was the highest.
# After 24 hours since the photodynamic therapy, the animals were intravenously given a solution of Evans blue in physiologic saline at the dose of 1.0 ml/100 g of body weight.
# [1] = Light absorption spectra and complex formation in phosphate buffer; type: physicochemical; settings: phosphate buffer 0.05M, pH 8.5, chlorin p6 1.9·10^−5M
# Source text: The absorption spectra of the above-obtained associations of polyvinylpyrrolidone with chlorin p6 in the phosphate buffer (0.05M, pH 8.5) are shown on FIG. 1 for the following chlorin p6/polyvinylpyrrolidone ratios (by weight): (1) 1:1; (2) 1:15; (3) 1:40; (4) 1:200; and (5) 1:1000. The concentration of chlorin p6 was 1.9·10^−5M in all investigated solutions.
# The chlorin p6-polyvinylpyrrolidone complex has an absorption maximum in the long-wave region of visible light, and this maximum is shifted towards longer wavelengths (664 nm) compared to free chlorin p6, which has an absorption maximum at 656 nm. Therefore, the use of the association according to the invention as a photosensitizer allows for deeper penetration of radiation into biological tissues, which allows for treating solid tumors and/or deeply located lesions.
# Formation of the complex of polyvinylpyrrolidone with chlorin p6 results in a series of changes in the absorption spectrum. […]
# FIG. 2 presents the experimentally obtained percent of red shift of the absorption maximum of the complex in relation to the content of polyvinylpyrrolidone. […] The spectra were recorded for a series of the solutions of the complex in the phosphate buffer (pH 8.5) at the chlorin p6 concentration of 1.9·10^−5M.
# [2] = test system: Walker-256 carcinosarcoma; assay: Inhibition of neoplasm's growth, Walker-256 carcinosarcoma; type: in vivo, rats; settings: 2.5 mg/kg intraperitoneally, 200 J/cm^2
# Description: The use of the association according to the invention allows to achieve a high level of the tumor growth inhibition. In order to confirm this effect, the studies were performed using white rats with implanted neoplasms (Walker-256 carcinosarcoma). A solution of the photosensitizer was administered intraperitoneally at doses of 2.5 mg/kg and the tumor was […] at the radiation dose of 200 J/cm^2. The observation was continued for 21 days following the therapy. FIG. 3 and Table 7 show the dynamics of changes of the absolute rate of the tumor growth, resulting from the use of the association according to the invention (1:15) as well as free chlorin p6. The control group consisted of untreated animals.
# [3] = reference standard; cited from earlier work
SMILES,Depth of necrosis (Pliss' lymphosarcoma),Necrosis area (Pliss' lymphosarcoma),Absorption maximum in the long-wave region of visible light [1],Neoplasm's growth ([2]; 3 days after photodynamic therapy),Neoplasm's growth ([2]; 7 days after photodynamic therapy),Neoplasm's growth ([2]; 10 days after photodynamic therapy),Neoplasm's growth ([2]; 14 days after photodynamic therapy),Neoplasm's growth ([2]; 21 days after photodynamic therapy),Resumption of tumor growth following the therapy ([2]; observation 21 days),Quantum yield of the singlet-state oxygen (φλ) of the reference solution [3]
"C=Cc1c(C)c2cc3nc(c(C(=O)O)c4[nH]c(cc5nc(cc1[nH]2)C(C)=C5CC)c(C)c4C(=O)O)[C@@H](CCC(=O)O)[C@@H]3C (relative stereo) [chlorin p6, 13-carboxy-17-[2-carboxyethyl]-15-carboxy-17,18-trans-dihydro-3-vinyl-8-ethyl-2,7,12,18-tetramethylporphyrin]",7 mm,46.3%,656 nm,0%,0%,3%,8%,12%,the tumor growth resumes after 10 days,–
"O=S(=O)([O-])c1ccc(-c2c3nc(c(-c4ccc(S(=O)(=O)[O-])cc4)c4ccc([nH]4)c(-c4ccc(S(=O)(=O)[O-])cc4)c4nc(c(-c5ccc(S(=O)(=O)[O-])cc5)c5ccc2[nH]5)C=C4)C=C3)cc1.[Na+].[Na+].[Na+].[Na+] [TSFP, tetrasodium phenylporphyrintetrasulfonate]",–,–,–,–,–,–,–,–,–,0.7
